Our source for the GI50 and TGI values is PubChem BioAssay (NCI).

Where “and” joins values, the source holds several entries; their conditions need not be identical. Identical values can stand only once.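 Results reflect a 48-hour exposure of cells in 96-well plates to compound at five concentrations. GI50: concentration for 50% inhibition of growth. Definition used: TGI = concentration required for complete inhibition of growth.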 A value given as a limit tells only on which side of the number the result lay.

Some test systems named below: K-562 leukemia; MALME-3M melanoma; OVCAR-4 ovarian; SN12C renal; KM12 colon; SNB-75 CNS; EKVX NSCLC; T-47D breast; NCI-H23 lung; SF-539 CNS.
Common to all, as to test: inhibition of tumour cell growth, NCI panel, 48 h

As for `COc1cc(C[C@H]2c3cc(OC)c(OC)cc3CCN2C)c(Oc2cc3c(cc2OC)-c2c(OC)c(OC)cc4c2[C@H](C3)N(C)CC4)cc1OC`, the GI50 with K-562 leukemia was 1.49 µM; with MALME-3M melanoma it was 5.39 µM; in the test on OVCAR-4 ovarian it was 14.6 µM; in the test on SN12C renal it was 16.6 µM; in the test on KM12 colon, 13.3 µM; in the test with SNB-75 CNS it was 9.19 µM. Besides, the GI50 was 17.6 µM with EKVX NSCLC, 17.8 µM with NCI-H23 lung and 3.97 µM in the test with SF-539 CNS. For the same compound, the TGI in the test on K-562 leukemia is 15.6 µM and 5.4 µM; with MALME-3M melanoma, 17 µM and 10.2 µM; in the test on OVCAR-4 ovarian, 23.9 µM and 28.6 µM; in the test with SN12C renal, 39.8 µM and 30.8 µM; in the test with KM12 colon it was 20.4 µM and 26.7 µM; in the test with SNB-75 CNS, 15.3 µM and 24.3 µM. Also, the TGI in the test with EKVX NSCLC was 34.6 µM and 32.7 µM; in the test with T-47D breast it was 23.4 µM; with NCI-H23 lung it was 30.2 µM and 36.2 µM; in the test with SF-539 CNS, 16.2 µM and 9.41 µM.

Take `COC(=O)c1nc(-c2ccccc2)oc1S(=O)(=O)Cc1ccccc1`: the GI50 in the test on K-562 leukemia is 2.07 µM; in the test on MALME-3M melanoma, 1.73 µM; with OVCAR-4 ovarian, 1.82 µM; with SN12C renal, 4.27 µM; in the test on KM12 colon, 20.8 µM; in the test with SNB-75 CNS, 14.1 µM. Further, the GI50 with EKVX NSCLC was 14.4 µM; in the test with T-47D breast it was 2.17 µM; in the test with NCI-H23 lung, 16.2 µM; with SF-539 CNS, 11.2 µM. In addition, the TGI stood at 5.29 µM in the test on K-562 leukemia; 3.44 µM in the test on MALME-3M melanoma; 3.4 µM with OVCAR-4 ovarian; 15.5 µM with SN12C renal; 39.2 µM in the test with KM12 colon; 27.1 µM in the test with SNB-75 CNS. The TGI with EKVX NSCLC turned out to be 30.1 µM; in the test on T-47D breast, 5.95 µM; with NCI-H23 lung, 34.4 µM; in the test with SF-539 CNS, 23.7 µM.

For the compound `COc1ccc(-c2cc(=O)[nH]c3c(OC)c4ccccc4c(OC)c23)cc1`, the GI50 in the test with K-562 leukemia was 0.346 µM; in the test with MALME-3M melanoma, 2.99 µM; in the test on OVCAR-4 ovarian, 1.21 µM; in the test with SN12C renal it was 0.612 µM; with KM12 colon, 0.323 µM; in the test on SNB-75 CNS, 0.246 µM. In addition, the GI50 with EKVX NSCLC is 2.87 µM; in the test on T-47D breast, 0.356 µM; in the test with NCI-H23 lung it was 0.817 µM; in the test with SF-539 CNS, 0.393 µM. Further, the TGI in the test with K-562 leukemia was more than 100 µM; with MALME-3M melanoma, more than 100 µM; in the test on OVCAR-4 ovarian it was more than 100 µM; in the test with SN12C renal it was more than 100 µM; in the test on KM12 colon, more than 100 µM; with SNB-75 CNS, 1.68 µM. The TGI in the test on EKVX NSCLC, with T-47D breast and in the test with NCI-H23 lung was more than 100 µM in each case.

Take `CN(C)CCN1C(=O)c2ccccc2N(C)c2ccccc21`: the GI50 with K-562 leukemia, in the test with MALME-3M melanoma, with OVCAR-4 ovarian, with SN12C renal, in the test on KM12 colon and in the test with SNB-75 CNS was more than 100 µM each time. Besides, the GI50 in the test on EKVX NSCLC, with T-47D breast, in the test with NCI-H23 lung and in the test with SF-539 CNS was more than 100 µM throughout. For the same compound, the TGI in the test on K-562 leukemia, in the test on MALME-3M melanoma, in the test with OVCAR-4 ovarian, with SN12C renal, in the test on KM12 colon and in the test with SNB-75 CNS was more than 100 µM in each case. Moreover, the TGI with EKVX NSCLC, in the test with T-47D breast, in the test on NCI-H23 lung and with SF-539 CNS was more than 100 µM each time.

As for `CC/C=C1/C(=O)C=C[C@@H]1C/C=C\CCCC(=O)OC`, the GI50 with K-562 leukemia was 0.767 µM; in the test with MALME-3M melanoma, 2.92 µM; with OVCAR-4 ovarian it was 5.24 µM; in the test with SN12C renal, 3.08 µM; with KM12 colon, 2.08 µM; with SNB-75 CNS, 12.9 µM. Moreover, the GI50 in the test with EKVX NSCLC was 4.8 µM; in the test on T-47D breast, 3.79 µM; with NCI-H23 lung, 2.17 µM; with SF-539 CNS it was 3.66 µM. The TGI in the test on K-562 leukemia is more than 100 µM; in the test on MALME-3M melanoma, 9.06 µM; in the test on OVCAR-4 ovarian, 18 µM; in the test on SN12C renal, 8.58 µM; in the test on KM12 colon it was 5.06 µM; in the test with SNB-75 CNS it was 33.2 µM. Besides, the TGI in the test with EKVX NSCLC stood at 16.8 µM; with T-47D breast, 16.7 µM; with NCI-H23 lung, 5.86 µM; in the test on SF-539 CNS, 13.7 µM.

On to `C=C(C)C(=O)Nc1ccc(NC(C)C)cc1`, for which the GI50 with K-562 leukemia, in the test with MALME-3M melanoma, in the test with OVCAR-4 ovarian, in the test with SN12C renal, in the test on KM12 colon and with SNB-75 CNS was more than 100 µM in each case. The GI50 in the test on EKVX NSCLC, with T-47D breast, in the test on NCI-H23 lung and in the test with SF-539 CNS was more than 100 µM throughout. The TGI in the test on K-562 leukemia, in the test with MALME-3M melanoma, with OVCAR-4 ovarian, in the test with SN12C renal, with KM12 colon and in the test on SNB-75 CNS was more than 100 µM in each case. Also, the TGI in the test on EKVX NSCLC, with T-47D breast, in the test with NCI-H23 lung and in the test with SF-539 CNS was more than 100 µM in each case.

For the compound `CC1CCC(NC(=O)N(CCCl)N=O)CC1` (stereo not given), the GI50 with K-562 leukemia was 0.122 µM; in the test on MALME-3M melanoma, 26 µM; with SN12C renal it was 19.1 µM; with KM12 colon, 36.6 µM; in the test on SNB-75 CNS, 27.3 µM; with NCI-H23 lung, 61.8 µM. Moreover, the GI50 in the test on SF-539 CNS was 18.9 µM. Moreover, the TGI in the test on K-562 leukemia was 28.9 µM and 119 µM; in the test on MALME-3M melanoma it was 51.5 µM and 98.1 µM; with OVCAR-4 ovarian it was 61.1 µM; in the test on SN12C renal, 41.7 µM and 81.4 µM; in the test with KM12 colon it was 112 µM; with SNB-75 CNS, 74.4 µM and 66.7 µM. Further, the TGI in the test on EKVX NSCLC is 119 µM; in the test on T-47D breast, 88.1 µM; in the test on NCI-H23 lung, 129 µM; in the test on SF-539 CNS it was 43.8 µM and 62.3 µM.

Consider `Cc1ccc(S(=O)(=O)N/N=C/c2c(O)ccc3ccccc23)cc1`, for which the TGI in the test on K-562 leukemia is more than 100 µM; in the test with MALME-3M melanoma, 77.4 µM; in the test with OVCAR-4 ovarian, 84.3 µM; in the test with SN12C renal it was more than 100 µM; with KM12 colon, 44.9 µM; with SNB-75 CNS, 74.3 µM. Also, the TGI is more than 100 µM with EKVX NSCLC, more than 100 µM with T-47D breast, 83.2 µM in the test with NCI-H23 lung and 41.8 µM with SF-539 CNS.
